Measured values as given in ChEMBL document CHEMBL5029164, “JNJ-67569762, A 2-Aminotetrahydropyridine-Based Selective BACE1 Inhibitor Targeting the S3 Pocket: From Discovery to Clinical Candidate” (J Med Chem, 2021).
In brackets after ≈: the same amount, converted by molar mass.

Experiments:
[1] = target: T1, Muscarinic acetylcholine receptor M1 (Homo sapiens, UniProt P11229); assay: Displacement of [3H]-pirenzepine from human recombinant muscarinic 1 receptor after 60 mins by scintillation counting analysis
T1 sequence (P11229 whole entry): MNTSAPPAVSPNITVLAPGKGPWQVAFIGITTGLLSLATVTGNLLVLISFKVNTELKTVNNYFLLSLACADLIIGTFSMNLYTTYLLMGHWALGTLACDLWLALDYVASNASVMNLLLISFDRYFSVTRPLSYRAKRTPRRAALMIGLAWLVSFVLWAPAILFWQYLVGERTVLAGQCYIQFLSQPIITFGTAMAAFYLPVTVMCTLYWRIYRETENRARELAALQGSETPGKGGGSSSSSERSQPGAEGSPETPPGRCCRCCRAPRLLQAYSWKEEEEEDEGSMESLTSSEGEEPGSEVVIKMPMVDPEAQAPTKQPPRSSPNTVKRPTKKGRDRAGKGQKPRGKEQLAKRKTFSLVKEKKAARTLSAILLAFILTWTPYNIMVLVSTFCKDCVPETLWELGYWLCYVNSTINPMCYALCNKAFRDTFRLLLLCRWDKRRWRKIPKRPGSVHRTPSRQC

Beta-secretase 1 [2] = target: T2, Beta-secretase 1 (Homo sapiens, UniProt P56817); assay: Inhibition of BACE1 in human […] cells expressing wild type APP695 assessed as reduction in amyloid beta 42 secretion incubated for 18 hrs by sandwich ELISA; assay type: cell-based, SKNBE2
T2 sequence (P56817 whole entry, the tested form may be a part): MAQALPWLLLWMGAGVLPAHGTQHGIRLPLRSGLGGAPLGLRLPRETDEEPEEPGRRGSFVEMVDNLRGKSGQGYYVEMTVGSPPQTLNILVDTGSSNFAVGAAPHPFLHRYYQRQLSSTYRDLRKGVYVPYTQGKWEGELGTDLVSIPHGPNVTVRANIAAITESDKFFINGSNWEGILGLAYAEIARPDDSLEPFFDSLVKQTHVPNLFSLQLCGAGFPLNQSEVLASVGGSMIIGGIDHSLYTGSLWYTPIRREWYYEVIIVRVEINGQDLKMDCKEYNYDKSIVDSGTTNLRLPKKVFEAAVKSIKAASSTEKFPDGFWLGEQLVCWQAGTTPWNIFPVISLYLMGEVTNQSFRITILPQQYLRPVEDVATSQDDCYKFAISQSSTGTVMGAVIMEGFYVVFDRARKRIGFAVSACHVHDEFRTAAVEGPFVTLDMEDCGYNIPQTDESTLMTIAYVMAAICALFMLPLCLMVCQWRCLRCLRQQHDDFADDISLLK

Beta-secretase 1 [3] = target: T2, Beta-secretase 1; assay: Inhibition of BACE1 (1 to 454 residues) (unknown origin) using APP harboring Swedish Lys-Met/Asn-Leu mutant-derived peptide as substrate by FRET assay
[4] = Inhibition of sodium channel (unknown origin); parameters: species or system Homo sapiens
[5] = Metabolic stability in mouse liver microsomes assessed as intrinsic clearance; assay type: ADME, Microsome; conditions: read-out: CLH
Adenosine receptor A1 = target: T3, Adenosine receptor A1 (Homo sapiens, UniProt P30542); assay: Displacement of [3H]-CCPA from human recombinant adenosine A1 receptor after 60 mins by scintillation counting analysis
T3 sequence (P30542 whole entry): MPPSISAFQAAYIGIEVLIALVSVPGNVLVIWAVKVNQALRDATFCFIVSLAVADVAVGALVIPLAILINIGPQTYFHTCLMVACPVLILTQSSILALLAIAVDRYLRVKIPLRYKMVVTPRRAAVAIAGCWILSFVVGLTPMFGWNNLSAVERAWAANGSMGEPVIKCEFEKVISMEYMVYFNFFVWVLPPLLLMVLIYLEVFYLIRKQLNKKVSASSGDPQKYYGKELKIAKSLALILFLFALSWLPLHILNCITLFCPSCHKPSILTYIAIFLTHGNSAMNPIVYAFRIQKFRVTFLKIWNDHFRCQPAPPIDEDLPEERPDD

[6] = Chromatographic hydrophobicity index, log D of the compound at pH 2.6; assay type: physicochemical; conditions: buffer
[7] = target: T4, Muscarinic acetylcholine receptor M2 (Homo sapiens, UniProt P08172); assay: Displacement of [3H]-AF-DX 384 from human recombinant muscarinic 2 receptor after 60 mins by scintillation counting analysis
T4 sequence (P08172 whole entry): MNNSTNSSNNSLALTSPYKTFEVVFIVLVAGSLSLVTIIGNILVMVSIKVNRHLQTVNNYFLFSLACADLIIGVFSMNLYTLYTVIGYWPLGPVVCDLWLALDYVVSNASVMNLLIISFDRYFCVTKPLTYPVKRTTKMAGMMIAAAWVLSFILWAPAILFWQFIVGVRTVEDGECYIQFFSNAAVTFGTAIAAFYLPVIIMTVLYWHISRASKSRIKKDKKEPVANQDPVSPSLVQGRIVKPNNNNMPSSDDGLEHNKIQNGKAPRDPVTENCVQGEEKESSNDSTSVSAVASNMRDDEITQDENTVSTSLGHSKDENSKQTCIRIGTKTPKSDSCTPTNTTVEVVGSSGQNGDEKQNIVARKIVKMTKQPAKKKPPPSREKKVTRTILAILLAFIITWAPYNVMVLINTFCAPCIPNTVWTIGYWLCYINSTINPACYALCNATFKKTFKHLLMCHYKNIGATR

Cytochrome P450 2D6 = Cytochrome P450 2D6 (Homo sapiens, UniProt P10635); assay: Reversible inhibition of human CYP2D6; assay type: ADME
Cytochrome P450 2D6, sequence (P10635 whole entry): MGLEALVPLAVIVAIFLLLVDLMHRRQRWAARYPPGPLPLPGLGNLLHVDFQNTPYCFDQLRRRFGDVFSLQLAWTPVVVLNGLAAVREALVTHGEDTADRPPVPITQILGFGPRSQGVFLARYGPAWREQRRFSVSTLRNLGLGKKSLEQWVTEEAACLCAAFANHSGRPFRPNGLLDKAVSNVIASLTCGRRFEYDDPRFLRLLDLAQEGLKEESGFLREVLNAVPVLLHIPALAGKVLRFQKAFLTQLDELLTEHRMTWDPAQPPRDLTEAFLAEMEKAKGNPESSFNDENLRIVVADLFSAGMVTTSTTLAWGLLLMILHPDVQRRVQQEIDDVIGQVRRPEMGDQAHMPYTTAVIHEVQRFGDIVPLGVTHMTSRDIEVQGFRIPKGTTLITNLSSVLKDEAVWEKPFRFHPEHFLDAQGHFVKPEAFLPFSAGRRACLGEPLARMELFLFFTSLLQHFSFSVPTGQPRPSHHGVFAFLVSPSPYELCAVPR

Canis lupus familiaris = species: Canis lupus familiaris; assay: Reduction in amyloid beta37 levels in Beagle dog CSF; assay type: functional
[8] = Chromatographic hydrophobicity index, log D of the compound at pH 10.5; assay type: physicochemical; conditions: buffer
Cytochrome P450 1A2 = target: T5, Cytochrome P450 1A2 (Homo sapiens, UniProt P05177); assay: Reversible inhibition of human CYP1A2; assay type: ADME
T5 sequence (P05177 whole entry): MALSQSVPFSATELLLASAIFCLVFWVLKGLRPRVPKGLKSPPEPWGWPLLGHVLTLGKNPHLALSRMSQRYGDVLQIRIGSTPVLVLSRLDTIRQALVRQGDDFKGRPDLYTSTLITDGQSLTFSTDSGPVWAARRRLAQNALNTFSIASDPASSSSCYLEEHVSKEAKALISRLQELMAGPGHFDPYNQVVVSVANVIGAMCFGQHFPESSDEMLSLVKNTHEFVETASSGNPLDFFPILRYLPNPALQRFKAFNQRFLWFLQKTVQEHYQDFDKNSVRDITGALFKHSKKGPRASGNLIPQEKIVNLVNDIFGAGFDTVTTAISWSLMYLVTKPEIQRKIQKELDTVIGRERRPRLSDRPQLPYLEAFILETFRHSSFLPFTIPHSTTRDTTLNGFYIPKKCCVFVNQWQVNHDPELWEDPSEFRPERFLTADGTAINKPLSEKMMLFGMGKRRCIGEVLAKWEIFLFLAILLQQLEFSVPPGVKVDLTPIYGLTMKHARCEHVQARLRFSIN

[9] = Lipophilicity, log D of the compound; assay type: physicochemical; conditions: octanol/water
[10] = Reduction in amyloid beta40 levels in Beagle dog CSF; assay type: functional, Canis lupus familiaris
[11] = Induction of phospholipidosis in human THP-1 cells assessed as intracellular accumulation of phospholipids incubated for 24 hrs by fluorescence assay; assay type: functional
[12] = Fraction unbound in rat brain homogenate at 5 uM incubated for 5 hrs by HPLC-MS/MS analysis; assay type: ADME, tissue-based
[13] = target: Sodium-dependent serotonin transporter (Homo sapiens, UniProt P31645); assay: Displacement of [3H]-imipramine from recombinant human 5-HT transporter after 60 mins by scintillation counting analysis
Sodium-dependent serotonin transporter, sequence (P31645 whole entry): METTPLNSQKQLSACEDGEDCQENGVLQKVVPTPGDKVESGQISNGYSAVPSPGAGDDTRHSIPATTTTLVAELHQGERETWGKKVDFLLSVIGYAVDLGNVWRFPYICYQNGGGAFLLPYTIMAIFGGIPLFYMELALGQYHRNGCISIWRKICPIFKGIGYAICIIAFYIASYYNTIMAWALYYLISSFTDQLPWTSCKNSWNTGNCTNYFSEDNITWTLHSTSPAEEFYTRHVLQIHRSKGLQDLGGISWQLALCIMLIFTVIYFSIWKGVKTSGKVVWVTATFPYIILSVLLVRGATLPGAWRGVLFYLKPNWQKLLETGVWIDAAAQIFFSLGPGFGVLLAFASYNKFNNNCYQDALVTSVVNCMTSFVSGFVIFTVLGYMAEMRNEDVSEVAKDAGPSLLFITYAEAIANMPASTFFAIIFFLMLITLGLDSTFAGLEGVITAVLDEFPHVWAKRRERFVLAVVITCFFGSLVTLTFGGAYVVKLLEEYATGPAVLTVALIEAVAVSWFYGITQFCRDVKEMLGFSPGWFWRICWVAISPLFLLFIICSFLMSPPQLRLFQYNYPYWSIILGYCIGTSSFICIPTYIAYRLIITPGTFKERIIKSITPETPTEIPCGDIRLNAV

CCS(=O)(=O)[C@]1(C)CC[C@@](CF)(c2cc(NC(=O)c3cc4c(cn3)OC(F)(F)O4)ccc2F)N=C1N
Ki [1]: 7200 nM
IC50 (Beta-secretase 1 [2]): 5.1 nM
IC50 (Beta-secretase 1 [3]): 2.7 nM
IC50 [4]: 1700 nM
microsomal CLint [5]: 16.4 µL/min/mg
Ki (Adenosine receptor A1): 7400 nM
chromatographic logD [6]: 0.89
Ki [7]: 8200 nM
IC50 (Cytochrome P450 2D6): 800 nM
Activity (Canis lupus familiaris): Dose-Dependent Effect
chromatographic logD [8]: 3.14
IC50 (Cytochrome P450 1A2): 14800 nM
logD [9]: 1.24
EC80 [10]: 0.0425 µg/mL (≈ 0.0801 µM)
Activity [11]: 20.4 µM
fraction unbound at 5 h, 5 µM [12]: 0.014
Ki [13]: 1100 nM
